Tests used:
[1] = system: premature infants between 7 and 21 days of age requiring ventilator support; settings: decreasing concentrations from 20 ppm, minimum of 24 days; cited from earlier work
[2] = LC/MS assay of total plasma nitrite and nitrate (NOx) in trial subjects; type: in vivo, human; settings: per subject, nitric oxide treatment arm
Procedure: Because of the challenge to measure free NO in systemic circulation, the PK assessment was done via plasma concentration data of NOx (nitrite and nitrate). In addition, methemoglobin (another metabolite of NO) was used as a secondary variable for PK evaluation. This evaluation was done to understand the relationship between pharmacokinetic behavior of iNO and clinical outcomes. The sampling protocol included pre-treatment time points (less than 2 hours before initiation of NO dosing), as well as a variety of time points during iNO therapy and after discontinuation of iNO therapy.
A liquid chromatographic/mass […] (LC/MS) assay method was developed and qualified for measurement NOx in human plasma. The quantitation of NOx was performed using the ^15N-stable isotope labeled nitrate as an internal standard. Nitrate reductase and NADH was added to the samples for enzymatic reduction of nitrate to nitrite in plasma. Upon completion of the reduction reaction, acetone was added to precipitate plasma proteins. The alkylating reagent, pentafluorobenzyl bromide (PFBBr), was subsequently added to the samples to convert nitrite to a chemically stable pentafluorobenzyl derivative. After completion of derivatization, plasma supernatant was injected into the LC/MS for analysis. Plasma concentrations of total nitrite and nitrate were measured and reported as NOx using this assay method. […]

[3] = system: mice with eNOS deficiency; settings: inhaled; cited from earlier work
[4] = in vivo; cited from earlier work
[5] = system: preterm infants less than 30 weeks gestational age requiring mechanical ventilation or positive pressure support; assay: Multi-center, double blind, placebo-controlled randomized clinical trial of iNO for prevention of BPD; type: in vivo, human
Text: It has been discovered that certain biomarkers present in premature infants are predictive of the risk of developing BPD and/or the likelihood of a therapeutic response to iNO to prevent BPD. As used herein, the term “therapeutic response to iNO” means that iNO administration increases the rate of survival without bronchopulmonary dysplasia (BPD) at 36 weeks of post menstrual age compared to the rate of survival […] at 36 weeks of post menstrual age in an untreated premature infant population. As used herein, the term “premature infant”, “preterm infant” and the like means infants born at less than 30 weeks gestational age. The biomarkers identified are of three types: a) the concentration of metabolites of NO, such as nitrite and nitrate, in blood or plasma, b) the concentration of NO in exhaled air, and c) the presence or absence of a mutation in the eNOS gene that decreases endogenous NO production, or any combination thereof.
A multi-center, double blind, placebo-controlled randomized clinical trial was conducted to examine the efficacy of iNO in preterm infants less than 30 weeks gestational age and less than 1250 grams who required mechanical ventilation or positive pressure support on days 5 to 14 after birth. […]

## [N]=O [NITRIC OXIDE, nitric oxide]
[1]
  Pulmonary outcome: improves the pulmonary outcome
  Short term adverse effects: no apparent short term adverse effects
[2]
  Lab Test Result (plasma NOx, total nitrite and nitrate): <LLOQ
[3]
  Alveolar and vascular growth: stimulated alveolar and vascular growth
[4]
  Time before steady-state methemoglobin levels are attained: ≥ 8 h
[5]; subjects having an average NOx concentration of about 20 or less
  Efficacy of iNO treatment: therapeutically effective
[5]; subjects with NOx levels from 62.3 uM to 184 uM
  Efficacy of iNO treatment: not effective

From patent US12007399B2, “Method of identifying and treating premature infants at risk for BPD” (Mallinckrodt Pharmaceuticals Ireland Limited, priority 2014, dated 2024)
